Reference: PubChem BioAssay (NCI)
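Growth conditions: 96-well plates. Treatment: test compound, 48 hours, 5 concentrations. Analysis: linear interpolation between bracketing concentrations; unreached endpoints set to highest concentration. GI50 is the concentration that inhibits growth by half. TGI: total growth inhibition.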

Tests used:
Assay in all cases: NCI-60 cell line screen, 48 h
PC-3 prostate = test system: PC-3 prostate
HCC-2998 colon = test system: HCC-2998 colon
SN12C renal = test system: SN12C renal
CAKI-1 renal = test system: CAKI-1 renal
MDA-MB-435 = test system: MDA-MB-435
MDA-MB-231 breast = test system: MDA-MB-231 breast
K-562 leukemia = test system: K-562 leukemia
HCT-116 colon = test system: HCT-116 colon
SK-MEL-5 melanoma = test system: SK-MEL-5 melanoma
DU-145 prostate = test system: DU-145 prostate
MCF7 breast = test system: MCF7 breast
NCI-H226 lung = test system: NCI-H226 lung
SNB-19 CNS = test system: SNB-19 CNS
NCI/ADR-RES ovarian = test system: NCI/ADR-RES ovarian
KM12 colon = test system: KM12 colon
UO-31 renal = test system: UO-31 renal
A549 NSCLC = test system: A549 NSCLC
SF-268 CNS = test system: SF-268 CNS
LOX IMVI melanoma = test system: LOX IMVI melanoma
SW-620 colon = test system: SW-620 colon
HCT-15 colon = test system: HCT-15 colon
SF-539 CNS = test system: SF-539 CNS
IGROV1 ovarian = test system: IGROV1 ovarian
SNB-75 CNS = test system: SNB-75 CNS
OVCAR-8 ovarian = test system: OVCAR-8 ovarian
HT29 colon = test system: HT29 colon
TK-10 renal = test system: TK-10 renal
OVCAR-3 ovarian = test system: OVCAR-3 ovarian
SR leukemia = test system: SR leukemia
U251 CNS = test system: U251 CNS
MOLT-4 leukemia = test system: MOLT-4 leukemia
NCI-H23 lung = test system: NCI-H23 lung
NCI-H522 lung = test system: NCI-H522 lung
HL-60(TB) leukemia = test system: HL-60(TB) leukemia
EKVX NSCLC = test system: EKVX NSCLC
HOP-62 NSCLC = test system: HOP-62 NSCLC
A498 renal = test system: A498 renal
SF-295 CNS = test system: SF-295 CNS
RXF 393 renal = test system: RXF 393 renal
T-47D breast = test system: T-47D breast
786-0 renal = test system: 786-0 renal
HS 578T breast = test system: HS 578T breast
OVCAR-4 ovarian = test system: OVCAR-4 ovarian
OVCAR-5 ovarian = test system: OVCAR-5 ovarian
SK-MEL-2 melanoma = test system: SK-MEL-2 melanoma
BT-549 breast = test system: BT-549 breast
UACC-257 melanoma = test system: UACC-257 melanoma
MALME-3M melanoma = test system: MALME-3M melanoma
CCRF-CEM leukemia = test system: CCRF-CEM leukemia
NCI-H460 lung = test system: NCI-H460 lung
SK-OV-3 ovarian = test system: SK-OV-3 ovarian
COLO 205 colon = test system: COLO 205 colon
RPMI-8226 leukemia = test system: RPMI-8226 leukemia
HOP-92 NSCLC = test system: HOP-92 NSCLC
SK-MEL-28 melanoma = test system: SK-MEL-28 melanoma
ACHN renal = test system: ACHN renal
UACC-62 melanoma = test system: UACC-62 melanoma

Structure (SMILES): CCC(=C(c1ccc(OCCN(C)C)cc1)c1ccc(OCCN(C)C)cc1)c1ccc(Cl)cc1
- GI50 (PC-3 prostate): 1260 nM
- TGI (PC-3 prostate): 4.56 µM
- GI50 (HCC-2998 colon): 2040 nM
- TGI (HCC-2998 colon): 5.73 µM
- GI50 (SN12C renal): 3.76 µM
- TGI (SN12C renal): 7.52 µM
- GI50 (CAKI-1 renal): 3.17 µM
- TGI (CAKI-1 renal): 6.48 µM
- GI50 (MDA-MB-435): 575 nM
- TGI (MDA-MB-435): 1410 nM
- GI50 (MDA-MB-231 breast): 2420 nM
- TGI (MDA-MB-231 breast): 5.75 µM
- GI50 (K-562 leukemia): 541 nM
- TGI (K-562 leukemia): 1770 nM
- GI50 (HCT-116 colon): 2580 nM
- TGI (HCT-116 colon): 6.24 µM
- GI50 (SK-MEL-5 melanoma): 3.99 µM
- TGI (SK-MEL-5 melanoma): 7.49 µM
- GI50 (DU-145 prostate): 3.11 µM
- TGI (DU-145 prostate): 6.67 µM
- GI50 (MCF7 breast): 522 nM
- TGI (MCF7 breast): 1670 nM
- GI50 (NCI-H226 lung): 4.12 µM
- TGI (NCI-H226 lung): 8.41 µM
- GI50 (SNB-19 CNS): 2840 nM
- TGI (SNB-19 CNS): 6.29 µM
- GI50 (NCI/ADR-RES ovarian): 3.22 µM
- TGI (NCI/ADR-RES ovarian): 6.68 µM
- GI50 (KM12 colon): 2540 nM
- TGI (KM12 colon): 5.67 µM
- GI50 (UO-31 renal): 3.23 µM
- TGI (UO-31 renal): 6.6 µM
- GI50 (A549 NSCLC): 2560 nM
- TGI (A549 NSCLC): 6.32 µM
- GI50 (SF-268 CNS): 3.54 µM
- TGI (SF-268 CNS): 7.48 µM
- GI50 (LOX IMVI melanoma): 430 nM
- TGI (LOX IMVI melanoma): 848 nM
- GI50 (SW-620 colon): 549 nM
- TGI (SW-620 colon): 1220 nM
- GI50 (HCT-15 colon): 770 nM
- TGI (HCT-15 colon): 2670 nM
- GI50 (SF-539 CNS): 2750 nM
- TGI (SF-539 CNS): 6.1 µM
- GI50 (IGROV1 ovarian): 2170 nM
- TGI (IGROV1 ovarian): 5.6 µM
- GI50 (SNB-75 CNS): 3.32 µM
- TGI (SNB-75 CNS): 7.53 µM
- GI50 (OVCAR-8 ovarian): 3.21 µM
- TGI (OVCAR-8 ovarian): 6.96 µM
- GI50 (HT29 colon): 427 nM
- TGI (HT29 colon): 1110 nM
- GI50 (TK-10 renal): 4.05 µM
- TGI (TK-10 renal): 7.75 µM
- GI50 (OVCAR-3 ovarian): 804 nM
- TGI (OVCAR-3 ovarian): 2740 nM
- GI50 (SR leukemia): 659 nM
- TGI (SR leukemia): 4.74 µM
- GI50 (U251 CNS): 670 nM
- TGI (U251 CNS): 2290 nM
- GI50 (MOLT-4 leukemia): 745 nM
- TGI (MOLT-4 leukemia): 2410 nM
- GI50 (NCI-H23 lung): 3.65 µM
- TGI (NCI-H23 lung): 7.26 µM
- GI50 (NCI-H522 lung): 1960 nM
- TGI (NCI-H522 lung): 5.77 µM
- GI50 (HL-60(TB) leukemia): 522 nM
- TGI (HL-60(TB) leukemia): 1230 nM
- GI50 (EKVX NSCLC): 3.85 µM
- TGI (EKVX NSCLC): 7.67 µM
- GI50 (HOP-62 NSCLC): 3.67 µM
- TGI (HOP-62 NSCLC): 7.95 µM
- GI50 (A498 renal): 3.58 µM
- TGI (A498 renal): 7.07 µM
- GI50 (SF-295 CNS): 3.09 µM
- TGI (SF-295 CNS): 6.49 µM
- GI50 (RXF 393 renal): 897 nM
- TGI (RXF 393 renal): 4.15 µM
- GI50 (T-47D breast): 3.17 µM
- TGI (T-47D breast): 8.03 µM
- GI50 (786-0 renal): 3.7 µM
- TGI (786-0 renal): 7.72 µM
- GI50 (HS 578T breast): 3.48 µM
- TGI (HS 578T breast): 7.79 µM
- GI50 (OVCAR-4 ovarian): 3.39 µM
- TGI (OVCAR-4 ovarian): 7.36 µM
- GI50 (OVCAR-5 ovarian): 3.91 µM
- TGI (OVCAR-5 ovarian): 7.56 µM
- GI50 (SK-MEL-2 melanoma): 4.48 µM
- TGI (SK-MEL-2 melanoma): 8.49 µM
- GI50 (BT-549 breast): 4.29 µM
- TGI (BT-549 breast): 8.38 µM
- GI50 (UACC-257 melanoma): 3.7 µM
- TGI (UACC-257 melanoma): 7.39 µM
- GI50 (MALME-3M melanoma): 855 nM
- TGI (MALME-3M melanoma): 3.3 µM
- GI50 (CCRF-CEM leukemia): 609 nM
- TGI (CCRF-CEM leukemia): 1790 nM
- GI50 (NCI-H460 lung): 2670 nM
- TGI (NCI-H460 lung): 6.03 µM
- GI50 (SK-OV-3 ovarian): 4.26 µM
- TGI (SK-OV-3 ovarian): 8.08 µM
- GI50 (COLO 205 colon): 1140 nM
- TGI (COLO 205 colon): 4.77 µM
- GI50 (RPMI-8226 leukemia): 598 nM
- TGI (RPMI-8226 leukemia): 1460 nM
- GI50 (HOP-92 NSCLC): 736 nM
- TGI (HOP-92 NSCLC): 4.01 µM
- GI50 (SK-MEL-28 melanoma): 462 nM
- TGI (SK-MEL-28 melanoma): 888 nM
- GI50 (ACHN renal): 1310 nM
- TGI (ACHN renal): 4.33 µM
- GI50 (UACC-62 melanoma): 492 nM
- TGI (UACC-62 melanoma): 1120 nM
